B1: MBP: myelin basic protein, a negative control (protein, UniProt P02686 1-304, looked up)
Myelin basic protein: MGNHAGKRELNAEKASTNSETNRGESEKKRNLGELSRTTSEDNEVFGEADANQNNGTSSQDTAVTDSKRTADPKNAWQDAHPADPGSRPHLIRLFSRDAPGREDNTFKDRPSESDELQTIQEDSAATSESLDVMASQKRPSQRHGSKYLATASTMDHARHGFLPRHRDTGILDSIGRFFGGDRGAPKRGSGKDSHHPARTAHYGSLPQKSHGRTQDENPVVHFFKNIVTPRTPPPSQGKGRGLSLSRFSWGAEGQRPGFGYGGRASDYKSAHKGFKGVDAQGTLSKIFKLGGRDSRSGSPMARR

Assays:
[1] = system: IL-10 secreted by LN cells; assay: IL-10 secretion by GA-stimulated LN cells, MSD 9-plex ELISA (Example II); type: cell-based, mouse; conditions: for IL-10 secretion response ratio (treated cell medium to control DCCM1 medium): 21 hr
Method: Animals at 8 weeks of age were immunized by injection into four footpads using a 1 mL syringe with a 27-G, 1⁄2-inch needle. […] Ten days post-immunization, immunized animals were sacrificed via cervical dislocation. […] The LN cells were isolated by pressing the LN with the plunger end of a sterile syringe. […] Trypan blue exclusion method was used to determine the cell density of viable cells in the suspension. […] Cat. […] LN cells were plated into a 24-well tissue culture plate for drug stimulation. […] Cell debris was removed by centrifugation at ca. 200×g for 10 minutes at 4° C. Cytokines secreted by treated cells were determined on the day of collection by ELISA using mouse TH 1/TH 2 9-Plex Tissue Culture Kit (Meso Scale Discovery; Cat No. […]-2, Lot #: K0032839) which detects Th1 cytokines (IFN-γ, IL-2, IL-12, IL-1β, TNF-α, CXCL1) and Th2 cytokines (IL-4, IL-5 and IL-10). For IFN-γ, culture media also were assayed at 45 hours using mouse IFN-γ Tissue Culture Kit (Meso Scale Discovery; Cat No. […] For the positive control, 0.5 mL of LN cells (5×10^6 cells/well) were treated with 0.5 mL of ConA (5 μg/mL). For the negative control, 0.5 mL of LN cells (5×10^6 cells/well) were treated with 0.5 mL of MBP (20 μg/mL). The LN cells with mock stimulation (enriched DCCM1 medium) were used to monitor the background level of a cytokine. For the cytokine assays, calibration standards or samples were incubated in the MULTI-SPOT or the SINGLE-SPOT plate and each cytokine bound to its corresponding capture antibody. All test samples were run in duplicate. The amount of each cytokine on its distinct spot was quantified using a cytokine-specific detection antibody labeled with MSD SULFO-TAGTM reagent. Electrochemiluminescent signals from immobilized SULFO-TAGTM-labeled complexes on each spot from each well were captured by the MSD SECTOR Imager 6000, which produces a signal directly proportional to the amount of captured cytokine in a test sample. The levels of cytokines in test samples were derived by interpolation from calibration curves with calibration standards of known concentrations using reagents provided with the MSD kits. Kits were used according to the manufacturer's protocols. […] Data are expressed as a response ratio of cytokine concentration in treated cell medium to control DCCM1 medium.

[2] = system: mouse IL-2 mRNA in primary LN cells; assay: Mouse IL-2 mRNA in LN cells of Copaxone-, GMA- or mannitol-immunized SJL/J mice stimulated with Copaxone and GMA lots, normalized to Actβ or GAPDH (Example V); type: cell-based
Method: A real-time polymerase chain reaction method was used to measure the expression of cytokine mRNA in GA-stimulated LN cells from GA-immunized SJL/J mice. Normalization of expression with two different housekeeping genes, GAPDH and β-actin, was tested.
Each group consisted of six female SJL/J mice immunized by injection in all four footpads with a total dose of 250 μg of one lot of GA, or mannitol and no GA. Three Copaxone batches and three GMA batches were used to immunize the mice. CFA was included in both GA and mannitol immunizations. Ten days following immunization, LN cell samples isolated from the immunized mice were each stimulated with a concentration of a Copaxone lot and a GMA lot. A positive control of 2.5 μg/mL ConA treated LN cells and a negative control of 10 μg/mL MBP treated cells were included in each group.
Therefore, the Q-PCR analysis was repeated on the samples, measuring levels of IL-2, IL-4, IL-5, and IL-13, using both GAPDH and β-actin as reference gene.

[3] = BALB/cByJ, immunized GA Intraplantar
[4] = BALB/cByJ, immunized GA Lower Limb
[5] = BALB/cByJ, immunized Mannitol Intraplantar
[6] = C57BL10J, immunized GA Intraplantar
[7] = C57BL10J, immunized GA Lower Limb
[8] = C57BL10J, immunized Mannitol Intraplantar
[9] = CD-1, immunized GA Intraplantar
[10] = CD-1, immunized Mannitol Intraplantar

Row | Molecule | IL-10 secretion response ratio (treated cell medium to control DCCM1 medium) [1, 3] | IL-10 secretion response ratio (treated cell medium to control DCCM1 medium) [1, 4] | IL-10 secretion response ratio (treated cell medium to control DCCM1 medium) [1, 5] | IL-10 secretion response ratio (treated cell medium to control DCCM1 medium) [1, 6] | IL-10 secretion response ratio (treated cell medium to control DCCM1 medium) [1, 7] | IL-10 secretion response ratio (treated cell medium to control DCCM1 medium) [1, 8] | IL-10 secretion response ratio (treated cell medium to control DCCM1 medium) [1, 9] | IL-10 secretion response ratio (treated cell medium to control DCCM1 medium) ([1]; CD-1, immunized GA Lower Limb) | IL-10 secretion response ratio (treated cell medium to control DCCM1 medium) [1, 10] | IL-2 mRNA Fold Change ([2]; Group 3 (mice immunized with GA-M2 Mylan GMA), 2.5 μg/mL, normalized to Actβ) [fold] | IL-2 mRNA Fold Change ([2]; Group 3 (mice immunized with GA-M2 Mylan GMA), 2.5 μg/mL, normalized to GAPDH) [fold] | IL-2 mRNA Fold Change ([2]; Group 4 (mice immunized with GA-C2 Copaxone), 2.5 μg/mL, normalized to Actβ) [fold] | IL-2 mRNA Fold Change ([2]; Group 4 (mice immunized with GA-C2 Copaxone), 2.5 μg/mL, normalized to GAPDH) [fold] | IL-10 secretion, dose response to GA (in words) ([1]; BALB/cByJ cells and CD1 cells) | IL-2 cross-potency ([2]; Copaxone: C/A, GMA: B/D, 5 μg/mL) [%] | IL-2 mRNA Fold Change ([2]; Group 3 (mice immunized with GA-M2 Mylan GMA), 10 μg/mL, normalized to Actβ) [fold] | IL-2 mRNA Fold Change ([2]; Group 3 (mice immunized with GA-M2 Mylan GMA), 10 μg/mL, normalized to GAPDH) [fold] | IL-2 mRNA Fold Change ([2]; Group 4 (mice immunized with GA-C2 Copaxone), 10 μg/mL, normalized to Actβ) [fold] | IL-2 mRNA Fold Change ([2]; Group 4 (mice immunized with GA-C2 Copaxone), 10 μg/mL, normalized to GAPDH) [fold]
1 | Concanavalin A [ConA, reference compound] | 23.65 | 18.32 | 21.86 | 1.62 | 1.50 | 1.04 | 13.70 | 8.64 | 10.96 | 123.4 | 149.4 | 105.0 | 84.8 | – | – | – | – | – | –
2 | L-glutamic acid polymer with L-alanine, L-lysine and L-tyrosine, acetate (salt) [GA] | – | – | – | – | – | – | – | – | – | – | – | – | – | dose-dependent manner | 108 | – | – | – | –
3 | B1 | 1.10 | 1.12 | 1.07 | 1.04 | 1.00 | 1.08 | 1.39 | 1.41 | 1.38 | – | – | – | – | – | – | 1.2 | 0.7 | 0.8 | 1.3

From US10344330B2, “Glatiramer acetate response biomarker mRNA potency assay” (Mylan Inc., priority 2013, dated 2019)
